# Experimental data: publication PMC6629894, “Ruthenium Complexes Containing Heterocyclic Thioamidates Trigger Caspase-Mediated Apoptosis Through MAPK Signaling in Human Hepatocellular Carcinoma Cells” (Frontiers in Oncology, 2019)
# Marks after values point to notes of the source that are not given here.
# Assays:
# [1] = system: WT SV40 MEF (wild-type immortalized mouse embryonic fibroblast); assay: Alamar blue cytotoxicity assay, 72 h; type: cell-based; conditions: Mus musculus, Fibroblast, read-out: IC50 and 95% CI
# [2] = system: HepG2 cells engrafted in C.B-17 SCID mice; assay: Human hepatocellular carcinoma xenograft model; type: in vivo; conditions: 0.3 mg/kg/day i.p., 21 days
# Description: A total of 64 C.B-17 severe-combined immunodeficiency (SCID) mice (females, 25–30 g) were obtained and maintained at the animal facilities from Gonçalo Moniz Institute-FIOCRUZ (Salvador, Bahia, Brazil). Animals were housed in cages with free access to food and water. All animals were kept under a 12:12-h light-dark cycle (lights on at 6:00 a.m.). The animals were treated according to the ethical principles for animal experimentation of SBCAL (Brazilian Association of Laboratory Animal Science), Brazil. The Animal Ethics Committee of Gonçalo Moniz Institute–FIOCRUZ (Salvador, Bahia, Brazil) approved the experimental protocol (number 06/2015). Animal welfare was monitored throughout the study, and the pain and suffering were minimized.
# [3] = system: calf thymus DNA (ctDNA); assay: DNA interaction assay (ethidium bromide displacement); type: binding; conditions: 20 μM
# Description: DNA interaction was measured in a cell-free system as previously described ([22]). In this assay, the ability of the complexes to translocate ethidium bromide, a DNA intercalator, from calf thymus DNA (ctDNA, Sigma-Aldrich Co.) was examined. […] […] After a 15 min incubation at room temperature, fluorescence was measured using the excitation and emission wavelengths of 320 and 600 nm, respectively, using a Spectramax Microplate Reader (Molecular Devices).
# [4] = system: B16-F10 (mouse melanoma); assay: Alamar blue cytotoxicity assay, 72 h; type: cell-based
# Description: (§1) The cell lines HepG2 (human hepatocellular carcinoma), HL-60 (human promyelocytic leukemia), K-562 (human chronic myelogenous leukemia), B16-F10 (mouse melanoma), MCF-7 (human breast carcinoma), HCT116 (human colon carcinoma), HSC-3 (human oral squamous cell carcinoma), SCC-4 (human oral squamous cell carcinoma), MRC-5 (human lung fibroblast), WT SV40 MEF (wild-type immortalized mouse embryonic fibroblast), and BAD KO SV40 MEF (BAD gene knockout immortalized mouse embryonic fibroblasts) were obtained from the American Type Culture Collection (ATCC, Manassas, VA, USA). Cells were cultured in RPMI 1640 medium (Gibco-BRL, Gaithersburg, MD, USA) with 10% fetal bovine serum (Life, Carlsbad, CA, USA), 2 mM L-glutamine (Vetec Química Fina, Duque de Caxias, RJ, Brazil) and 50 μg/mL gentamycin (Life). For all experiments, adherent cells were collected by treatment with 0.25% trypsin-EDTA solution (Gibco-BRL). All cell lines were cultured in flasks at 37°C in 5% CO2 and were subcultured every 3–4 days to maintain exponential growth. All cell lines were tested for mycoplasma using a mycoplasma staining kit (Sigma-Aldrich Co.) to validate that the cells that were used were free from contamination.
# (§2) Cytotoxicity was measured colorimetrically using an Alamar blue method that was performed as previously described ([20], [21]). Cells were seeded in 96-well plates for all experiments (7 × 10^4 cells/mL for adherent cells or 3 × 10^5 cells/mL for suspension cells in 100 μL of medium) and incubated overnight at 37°C with 5% CO2 to allow for adherence. The complexes were dissolved in 0.5% dimethyl sulfoxide (DMSO, Vetec Química Fina) at eight different concentrations from 0.19 to 25 μg/mL and were added to each well and incubated for 72 h. The negative control was treated with the vehicle (0.5% DMSO) that was used to solubilize and dilute the complexes. […] Four (for cell lines) or 24 h (for PBMCs) before the end of incubation, 20 μL of a stock solution (0.312 mg/mL) of resazurin (Sigma-Aldrich Co.) was added to each well. Absorbance was measured at 570 and 600 nm using a SpectraMax 190 Microplate Reader (Molecular Devices, Sunnyvale, CA, USA).
# [5] = system: K-562 (human chronic myelogenous leukemia); assay: Alamar blue cytotoxicity assay, 72 h; type: cell-based
# Description: as §1, §2
# [6] = system: HepG2 (human hepatocellular carcinoma); assay: Alamar blue cytotoxicity assay, 72 h; type: cell-based
# Description: as §1, §2
# [7] = system: BAD KO SV40 MEF (BAD gene knockout immortalized mouse embryonic fibroblasts); assay: Alamar blue cytotoxicity assay, 72 h; type: cell-based; conditions: Mus musculus, Fibroblast, read-out: IC50 and 95% CI
# [8] = system: HepG2 cells; assay: Trypan blue exclusion assay; type: cell-based, human; conditions: 2 μM
# Description: For all subsequent in vitro experiments, 2 mL of a suspension of HepG2 cells were seeded (7 × 10^4 cells/mL) and incubated in a 24-well plate overnight to allow the cells to adhere to the plate surface.
# In the trypan blue exclusion assay, the number of viable cells and non-viable cells (stained with trypan blue) were counted. Briefly, 90 μL was removed from the cell suspension, and 10 μL of trypan blue (0.4%) was added. Cell counting was performed using a light microscope with a hemocytometer filled with an aliquot of the homogenized cell suspension.
# [9] = peripheral blood, 0.3 mg/kg/day, 21 days
compound,measurement,setting,value
"COc1cccc2c1C(=O)c1c(O)c3c(c(O)c1C2=O)C[C@@](O)(C(=O)CO)C[C@@H]3O[C@H]1C[C@H](N)[C@H](O)[C@H](C)O1 [Doxorubicin, reference compound]",IC50,[1],40 nM
same,reduction of tumor weight vs negative control,[2],36.8%
same,reduction of the fluorescence intensity (ethidium bromide-ctDNA) vs negative control,[3],89.0%
same,Selectivity index (SI = IC50 [noncancerous cells]/IC50 [cancer cells]),[4]; MRC-5 vs B16-F10,2.0
same,IC50,"[4]; Mus musculus, B16-F10, 72 h, read-out: IC50 and 95% CI",200 nM
same,Selectivity index (SI = IC50 [noncancerous cells]/IC50 [cancer cells]),[4]; PBMCs vs B16-F10,12.5
same,Selectivity index (SI = IC50 [noncancerous cells]/IC50 [cancer cells]),[5]; MRC-5 vs K-562,0.4
same,Selectivity index (SI = IC50 [noncancerous cells]/IC50 [cancer cells]),[5]; PBMCs vs K-562,2.8
same,Selectivity index (SI = IC50 [noncancerous cells]/IC50 [cancer cells]),[6]; MRC-5 vs HepG2,1.3
same,Selectivity index (SI = IC50 [noncancerous cells]/IC50 [cancer cells]),[6]; PBMCs vs HepG2,8.3
same,Initial body weight,0.3 mg/kg/day,22.3 ± 0.4 g
same,Final body weight,"0.3 mg/kg/day i.p., 21 days",19.5 ± 0.6 g
same,Heart relative weight,"0.3 mg/kg/day i.p., 21 days",0.5 ± 0.02 g/100 g body weight
same,Kidney relative weight,"0.3 mg/kg/day i.p., 21 days",1.5 ± 0.04 g/100 g body weight
same,Liver relative weight,"0.3 mg/kg/day i.p., 21 days",4.8 ± 0.1 g/100 g body weight
same,Lung relative weight,"0.3 mg/kg/day i.p., 21 days",0.9 ± 0.06 g/100 g body weight
same,Differential leukocytes: Eosinophils,[9],1.0%
same,Differential leukocytes: Lymphocytes,[9],49.3%
same,Differential leukocytes: Monocytes,[9],1.0%
same,Differential leukocytes: Neutrophils,[9],48.8%
same,Erythrocytes,[9],8.9 ± 0.7 10^6cells/μL
same,Total leukocytes,[9],1.5 ± 0.2* 10^3cells/μL
same,IC50,[7],400 nM
same,reduction of the number of viable cells vs negative control,[8]; 24 h,53.1%
same,reduction of the number of viable cells vs negative control,[8]; 48 h,74.7%
